Earlier results as cited in patent US12083078B2, “Parenteral cannabinoid formulations and uses thereof” (priority 2020, dated 2024).

Conditions: buffering pH range

| pH range | Compound |
| --- | --- |
| 3-4.5 | CC(O)C(=O)O (stereo not shown) [Lactic Acid] |
| 3-7 | O=C(O)CC(O)(CC(=O)O)C(=O)O [Citric Acid] |
| 4-6 | CC(=O)O [Acetic Acid] |

| Compound | pH range |
| --- | --- |
| O=P(O)(O)O [Sodium Phosphate] | 8-8 |
